These results are taken from PubChem BioAssay (NCI).

Holding throughout (experiment): DTP human tumour cell line panel, 48 h
The test system of test [1] is NCI/ADR-RES ovarian.
Test [2] concerns COLO 205 colon.
The subject of test [3] is CCRF-CEM leukemia.
For test [4], the system named is LOX IMVI melanoma.
The test system of test [5] is MCF7 breast.
The subject of test [6] is BT-549 breast.
The subject of test [7] is U251 CNS.
Test [8] has as its system K-562 leukemia.
Test [9] concerns HCT-116 colon.
Test [10] deals with HCC-2998 colon.

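Compound exposure: 48 hours, 5 concentrations, 96-well plates. The concentration for 50% growth inhibition is given as GI50. Definition used: TGI = concentration required for complete inhibition of growth.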

For the compound `COc1ccc(C(=O)/C=C/c2ccc(/C=C/c3cc(OC)c(OC)c(OC)c3)cc2)cc1`, the GI50 in [1] is 5.46 µM; in test [2] it was 13.7 µM; in test [3], 4.15 µM; in test [4] it was 3.76 µM; in [5], 2.18 µM; in test [6], 3.36 µM. Also, the GI50 is 5.09 µM in test [7], 3.03 µM in test [8], 2.62 µM in [9] and 38.5 µM in [10]. The TGI in [1] was more than 100 µM; in [2], more than 100 µM; in test [3], more than 100 µM; in test [4], 60.9 µM; in test [5], 36.6 µM; in test [6], 16.8 µM. In addition, the TGI in test [7] is 54.7 µM; in test [8], more than 100 µM; in test [9] it was more than 100 µM; in [10], more than 100 µM.

Regarding `CCN(CC)CCn1ccc(=O)c2cc3c(=O)ccn(CCN(CC)CC)c3c(C)c21`, the TGI was 5.2 µM in test [1]; 15.3 µM in [2]; 29.6 µM in [3]; 7.55 µM in test [4]; more than 100 µM in test [5]; 29.2 µM in test [6]. For the same compound, the concentration for total growth inhibition (TGI) in test [7] worked out at 19.7 µM; in [8] it was 26.8 µM; in [9], 9.08 µM; in test [10], 2.93 µM.

Regarding `O=C1OC(=O)C(c2c[nH]c3ccccc23)=C1c1c[nH]c2ccccc12`, the GI50 in test [1], in [2], in test [3], in [4], in [5] and in [6] was more than 25 µM in each case. The GI50 in test [7], in test [8], in [9] and in test [10] was more than 25 µM each time. Also, the TGI in [1], in [2], in [3], in [4], in test [5] and in [6] was more than 25 µM throughout. The concentration for total growth inhibition (TGI) in test [7], in test [8], in test [9] and in [10] was more than 25 µM in each case.

Take `C[C@@H](C(=O)Nc1ccc(Cl)cc1)C1CCC(c2ccnc3ccc(F)cc23)CC1` (stereo not given in full): the GI50 is 10.1 µM in test [1]; 8.8 µM in test [2]; 3.43 µM in [3]; 5.85 µM in test [4]; 4.4 µM in test [5]; 3.72 µM in [6]. Moreover, the GI50 in [7] is 20 µM; in [8], 5.1 µM; in test [9] it was 3.13 µM; in test [10], 4.35 µM. Besides, the TGI was 48 µM in test [1]; 34 µM in test [2]; more than 100 µM in test [3]; 21.3 µM in test [4]; 97.5 µM in test [5]; 22.8 µM in test [6]. Also, the TGI is more than 100 µM in [7], 67.4 µM in [8], 21.6 µM in test [9] and 24.3 µM in test [10].

For the compound `CCCCCn1c(=N)n(CC(O)COc2cccc(C)c2)c2ccccc21` (stereo not given), the GI50 in test [1] is 10.5 µM; in [2], 1.93 µM; in test [3] it was 3.12 µM; in [4] it was 3.25 µM; in [5] it was 2.85 µM; in test [6] it was 9.22 µM. For the same compound, the GI50 was 2.11 µM in test [7], 2.76 µM in [8], 3.03 µM in test [9] and 2.1 µM in test [10]. Also, the concentration for total growth inhibition (TGI) in [1] was found to be 27.1 µM; in test [2], 3.62 µM; in test [3], 15.2 µM; in test [4], 11.6 µM; in test [5], 11.6 µM; in test [6], 23.3 µM. For the same compound, the concentration for total growth inhibition (TGI) in test [7] turned out to be 4.25 µM; in test [8], 10.2 µM; in [9], 17.7 µM; in test [10], 3.98 µM.

For `COc1cc(C2c3cc4c(cc3OC(N3CCCC3)C2C)OCO4)cc(OC)c1OC` (stereo not given), the TGI in [1] is 0.531 µM; in test [2] it was 1.03 µM; in [3], more than 51.9 µM; in test [4], 25.9 µM; in test [5] it was 4.06 µM; in test [6], 11.5 µM. Besides, the TGI in [7] is 13.2 µM; in test [8], more than 19.1 µM; in test [9] it was 27.7 µM; in test [10], 4.32 µM.
